Measurements taken from patent US10285989B2, “Pyrimidinone amide compounds as PDE2 inhibitors” (Merck Sharp & Dohme Corp., priority 2015, dated 2019).

Molecular target: human PDE2A1 (Homo sapiens (Human), UniProt O00408)
Assay: PDE2 IMAP FP inhibition assay, human PDE2A1 (selectivity panel format)
Assay type: biochemical
Conditions: Lab A; read-out: Human PDE2 Ki (nM) - Lab A
Procedure: Selectivity for PDE2, as compared to other PDE families, was assessed using the IMAP® technology. Human PDE10A2 enzyme was prepared from cytosolic fractions of transiently transfected HEK cells.
A Labcyte POD 810 (Labcyte, Sunnyvale, Calif.) was used to dispense 200 nL from each well of the titration plate to make eleven copies of the assay plate for each titration, one copy for each PDE enzyme. A solution of each enzyme (dilution from aliquots, sufficient to produce 20% substrate conversion) and a separate solution of FAM-labeled cAMP or FAM-labeled cGMP from Molecular Devices (Sunnyvale, Calif., product # R7506 or cGMP#R7508), at a final concentration of 50 nM were made in the assay buffer (10 mM Tris HCl, pH 7.2, 10 mM MgCl2, 0.05% NaN3 0.01% Tween-20, and 1 mM DTT). Note that the substrate for PDE2 is 50 nM FAM cAMP containing 1000 nM of cGMP. The enzyme and the substrate were then added to the assay plates in two consecutive additions of 10 μL and then shaken to mix. The reaction was allowed to proceed at room temperature for 60 minutes. A binding solution was then made from the kit components, comprised of 80% Solution A, 20% Solution B and binding reagent at a volume of 1/600 the total binding solution. The enzymatic reaction was stopped by addition of 60 μL of the binding solution to each well of the assay plate. The plates were sealed and shaken for 10 seconds. The plates were incubated at room temperature for one hour, then the parallel and perpendicular fluorescence was measured using a Tecan Genios Pro plate reader (Tecan, Switzerland). […] The intrinsic PDE2 inhibitory activity of a compound which may be used in accordance with the present invention may be determined by these assays. […]

human PDE2A1, sequence (O00408 other isoform, or with tags, fused parts or gaps): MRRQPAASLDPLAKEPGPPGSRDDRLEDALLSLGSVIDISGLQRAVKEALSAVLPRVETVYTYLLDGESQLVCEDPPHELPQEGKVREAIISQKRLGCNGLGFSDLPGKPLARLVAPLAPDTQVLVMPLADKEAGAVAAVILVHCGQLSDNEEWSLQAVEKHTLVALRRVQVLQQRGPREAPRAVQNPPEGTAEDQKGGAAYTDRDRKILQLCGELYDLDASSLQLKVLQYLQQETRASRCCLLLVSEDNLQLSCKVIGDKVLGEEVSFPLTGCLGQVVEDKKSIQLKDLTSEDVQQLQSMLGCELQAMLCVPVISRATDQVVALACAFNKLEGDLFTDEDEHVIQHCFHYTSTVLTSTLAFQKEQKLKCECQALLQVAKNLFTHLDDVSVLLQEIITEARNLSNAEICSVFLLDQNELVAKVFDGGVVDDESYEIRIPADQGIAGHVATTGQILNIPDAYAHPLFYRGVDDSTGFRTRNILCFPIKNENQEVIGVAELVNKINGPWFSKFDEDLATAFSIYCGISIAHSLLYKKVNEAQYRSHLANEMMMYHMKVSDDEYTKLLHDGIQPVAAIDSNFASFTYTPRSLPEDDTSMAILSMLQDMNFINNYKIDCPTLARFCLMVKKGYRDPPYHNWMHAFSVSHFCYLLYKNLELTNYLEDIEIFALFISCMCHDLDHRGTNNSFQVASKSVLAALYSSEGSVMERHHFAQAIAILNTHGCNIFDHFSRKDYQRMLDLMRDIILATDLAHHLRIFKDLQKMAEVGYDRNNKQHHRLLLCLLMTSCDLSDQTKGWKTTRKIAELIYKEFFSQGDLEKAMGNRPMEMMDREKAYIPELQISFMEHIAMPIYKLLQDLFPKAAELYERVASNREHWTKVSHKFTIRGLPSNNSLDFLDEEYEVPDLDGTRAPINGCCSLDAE

Structure (SMILES)	Ki
CC(C)[C@@H](NC(=O)c1cc(=O)[nH]c(N2CC[C@@H](O)C2)n1)c1ccc(OC(F)(F)F)c(F)c1 [Example 166, N-{(1R)-1-[3-fluoro-4-(trifluoromethoxy)phenyl]-2-methylpropyl}-2-[(3R)-3-hydroxypyrrolidin-1-yl]-6-oxo-1,6-dihydropyrimidine-4-carboxamide]	1.3 nM

Same assay, conditions: Lab B; read-out: Human PDE2 Ki (nM) - Lab B

Structure (SMILES)	Ki
CN(C)c1nc(C(=O)NC(c2ccccc2)c2ccc(C(F)(F)F)cc2)cc(=O)[nH]1 (stereo not shown) [Example 195, 2-(dimethylamino)-6-oxo-N-{phenyl[4-(trifluoromethyl)phenyl]methyl}-1,6-dihydropyrimidine-4-carboxamide]	81 nM
CN(C)c1nc(C(=O)NC(c2ccncc2)c2ccc(C(F)(F)F)cc2)cc(=O)[nH]1 (stereo not shown) [Example 196, 2-(dimethylamino)-6-oxo-N-{pyridin-4-yl[4-(trifluoromethyl)phenyl]methyl}-1,6-dihydropyrimidine-4-carboxamide]	91 nM
CC(=O)C(NC(=O)c1cc(=O)[nH]c(N(C)C)n1)c1ccc(C(F)(F)F)cc1 (stereo not shown) [Example 197, 2-(dimethylamino)-6-oxo-N-{2-oxo-1-[4-(trifluoromethyl)phenyl]propyl}-1,6-dihydropyrimidine-4-carboxamide]	3.6 nM
CN(C)c1nc(C(=O)N[C@H]2COCc3cc(C(F)(F)F)ccc32)cc(=O)[nH]1 [Example 198, 2-(dimethylamino)-6-oxo-N-[(4R)-7-(trifluoromethyl)-3,4-dihydro-1H-isochromen-4-yl]-1,6-dihydropyrimidine-4-carboxamide]	863 nM
CN(C)c1nc(C(=O)NC(C#N)c2ccc(C(F)(F)F)cc2)cc(=O)[nH]1 (stereo not shown) [Example 199, N-{cyano[4-(trifluoromethyl)phenyl]methyl}-2-(dimethylamino)-6-oxo-1,6-dihydropyrimidine-4-carboxamide]	27 nM
CN(C)c1nc(C(=O)N[C@](C)(CO)c2ccc(C(F)(F)F)cc2Cl)cc(=O)[nH]1 [Example 200, N-{(1S)-1-[2-chloro-4-(trifluoromethyl)phenyl]-2-hydroxy-1-methylethyl}-2-(dimethylamino)-6-oxo-1,6-dihydropyrimidine-4-carboxamide]	0.52 nM
CN(C)c1nc(C(=O)NC2(c3ccc(OC(F)(F)F)cc3)CCC2)cc(=O)[nH]1 [Example 201, 2-(dimethylamino)-6-oxo-N-{1-[4-(trifluoromethoxy)phenyl]cyclobutyl}-1,6-dihydropyrimidine-4-carboxamide]	18 nM
CN(C)c1nc(C(=O)NC2(c3ccc(C(F)(F)F)cc3)CCCC2)cc(=O)[nH]1 [Example 202, 2-(dimethylamino)-6-oxo-N-{1-[4-(trifluoromethyl)phenyl]cyclopentyl}-1,6-dihydro-pyrimidine-4-carboxamide]	5.4 nM
CN(C)c1nc(C(=O)NC(CC#N)c2ccc(C(F)(F)F)cc2)cc(=O)[nH]1 (stereo not shown) [Example 203, N-{2-cyano-1-[4-(trifluoromethyl)phenyl]ethyl}-2-(dimethylamino)-6-oxo-1,6-dihydropyrimidine-4-carboxamide]	22 nM
CN(C)c1nc(C(=O)N[C@H]2CCCc3cc(C(F)(F)F)ccc32)cc(=O)[nH]1 [Example 204, 2-(dimethylamino)-6-oxo-N-[(1S)-6-(trifluoromethyl)-1,2,3,4-tetrahydronaphthalen-1-yl]-1,6-dihydropyrimidine-4-carboxamide]	129 nM
COC(=O)C(NC(=O)c1cc(=O)[nH]c(N(C)C)n1)c1ccc(C(F)(F)F)cc1 (stereo not shown) [Example 205, methyl ({[2-(dimethylamino)-6-oxo-1,6-dihydropyrimidin-4-yl]carbonyl}amino)[4-(trifluoromethyl)phenyl]acetate]	49 nM
CN(C)c1nc(C(=O)NC(CO)c2ccc(C(F)(F)F)cc2)cc(=O)[nH]1 (stereo not shown) [Example 206, 2-(dimethylamino)-N-{2-hydroxy-1-[4-(trifluoromethyl)phenyl]ethyl}-6-oxo-1,6-dihydropyrimidine-4-carboxamide]	7.2 nM
CN(C)c1nc(C(=O)NC(c2ccc(C(F)(F)F)cc2)C(F)(F)F)cc(=O)[nH]1 (stereo not shown) [Example 207, 2-(dimethylamino)-6-oxo-N-{2,2,2-trifluoro-1-[4-(trifluoromethyl)phenyl]ethyl}-1,6-dihydropyrimidine-4-carboxamide]	2.9 nM
CN(C)c1nc(C(=O)N[C@@H](c2ccc(OC(F)(F)F)c(F)c2)C(C)(C)O)cc(=O)[nH]1 [Example 208, 2-(dimethylamino)-N-{(1S)-1-[3-fluoro-4-(trifluoromethoxy)phenyl]-2-hydroxy-2-methylpropyl}-6-oxo-1,6-dihydropyrimidine-4-carboxamide]	0.12 nM
CN(C)c1nc(C(=O)N[C@@](C)(CO)c2ccc(C(F)(F)F)cc2Cl)cc(=O)[nH]1 [Example 209, N-{(1R)-1-[2-chloro-4-(trifluoromethyl)phenyl]-2-hydroxy-1-methylethyl}-2-(dimethylamino)-6-oxo-1,6-dihydropyrimidine-4-carboxamide]	3.9 nM
CN(C)c1nc(C(=O)N[C@@H](c2ccc(OC(F)(F)F)cc2Cl)C(C)(C)O)cc(=O)[nH]1 [Example 210, N-{(1S)-1-[2-chloro-4-(trifluoromethoxy)phenyl]-2-hydroxy-2-methylpropyl}-2-(dimethylamino)-6-oxo-1,6-dihydropyrimidine-4-carboxamide]	0.54 nM
CN(C)c1nc(C(=O)N[C@@H](c2ccc(S(F)(F)(F)(F)F)cc2)C(C)(C)O)cc(=O)[nH]1 [Example 211, 2-(dimethylamino)-N-{(1S)-2-hydroxy-2-methyl-1-[4-(pentafluoro-λ^6-sulfanyl)phenyl]propyl}-6-oxo-1,6-dihydropyrimidine-4-carboxamide]	0.073 nM
CN(C)c1nc(C(=O)NC2(c3ccc(C(F)(F)F)cc3)COC2)cc(=O)[nH]1 [Example 212, 2-(dimethylamino)-6-oxo-N-{3-[4-(trifluoromethyl)phenyl]oxetan-3-yl}-1,6-dihydropyrimidine-4-carboxamide]	9.2 nM
